Reference: patent US20020077491A1, “Methods for forming combinatorial libraries combining amide bond formation with epoxide opening” (priority 2000, published 2002)
Several values for one entry are separate records, joined by “and”; a condition that tells them apart may be missing. Equal entries are not always repeated.

Assays:
[1] = system: E. coli BL21(DE3); assay: Determination of antibacterial activity (inhibition of bacterial growth, absorbance at 600 nm); format: cell-based; details: Escherichia coli, 24 hours at 37° C.
Protocol: Protocols for the measurement of IC50 for the evaluation of antibacterial activity followed standard methods [Antibiotics in Laboratory Medicine, V. Lorian, Ed. Fourth edition, 1996. Williams and Wilkins; Baltimore, Md.]. Briefly, purified (S)-29, antibiotic control, or vehicle (DMSO) was subjected to serial dilution into Luria-Bertani growth medium in a manner that placed 0.1 mL aliquots of medium-plus-vehicle or medium-plus-antibiotic into each well of a sterile polystyrene 96-well plate. To aid compound dissolution, medium-analyte mixtures were warmed to 37° C. for eight hours with agitation. Bacterial cells, [E. coli: hsdS gal (λcIts857 ind 1 Sam7 nin5 lacUV5-T7 gene 1); BL21(DE3)] were grown in to mid-log phase at 37° C. The culture was then diluted 1:10^5 into prewarmed growth medium. Aliquots of diluted bacterial culture (0.1 mL) were then combined with the pre-aliquotted medium-analyte mixtures to yield 0.2 mL inoculated cultures containing no more than 2.5% DMSO. The plated inoculate series were then grown for twenty-four hours at 37° C. with orbital shaking. Bacterial cell growth was quantitated by measuring absorbance at 600 nm. IC50 for the inhibition of bacterial growth was defined as the concentration of drug at which cell growth was half maximal at twenty-four hours.

[2] = biological target: T1, E. coli dihydrofolate reductase (DHFRec) (Escherichia coli, UniProt P0ABQ4); assay: ALIS affinity selection-mass spectrometry with E. coli DHFR; format: binding
T1 construct: made in house
Excerpt: (§1) Utilizing the ALIS techniques described above, the affinity of ligands for DHFRec was compared to the affinity of the same ligands for the bovine (B. taurus) DHFR enzyme.

[3] = biological target: T2, bovine (B. taurus) DHFR enzyme (Bos taurus, UniProt P00376); assay: ALIS affinity selection with bovine DHFR; format: binding; details: FIG. 9
T2 sequence (P00376 1-187): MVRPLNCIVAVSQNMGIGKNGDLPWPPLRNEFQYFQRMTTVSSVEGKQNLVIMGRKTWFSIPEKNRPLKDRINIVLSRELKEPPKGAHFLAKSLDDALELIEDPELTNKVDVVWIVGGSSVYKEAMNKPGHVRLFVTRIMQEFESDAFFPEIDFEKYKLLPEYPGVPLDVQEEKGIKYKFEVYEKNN
Excerpt: as §1

## COc1ccc([C@@H](C)NC[C@H](O)COc2cc(C(=O)N3CCN(c4cccc(Cl)c4)CC3)on2)cc1 [(S)-29]
[1]
  IC50: 56 µM and 29 µg/mL
[2]; E. coli enzyme, FIG. 9
  affinity for DHFRec (ALIS): selectively binds to the E. coli enzyme
[2]; pathogen vs. host DHFR, FIG. 9
  specificity for E. coli DHFR over bovine DHFR: exhibits specificity for E. coli DHFR over bovine (B. taurus) DHFR
[3]
  affinity for bovine (B. taurus) DHFR (ALIS): no detectable affinity

## COc1ccc([C@@H](C)NCC(O)COc2cc(C(=O)N3CCN(c4cccc(Cl)c4)CC3)on2)cc1 (some centres unmarked) [Core 29]
[2]; sublibrary from Core 6 with building blocks 15 and 21
  ligand identified by affinity selection LC-MS-MS: matched that assigned to regioisomer 29
